Holding throughout (assay type): cell-based, Staphylococcus aureus
In one assay the test system is MSSA (KCTC 1927). The assay can be described thus: Minimum inhibitory concentration, two-fold serial dilution, MSSA KCTC 1927. As to the method:
(§1) All the bacterial strains used for the Example were obtained from the Korean Collection of Type Cultures (KCTC; Daejeon, Korea) and the Korean Culture Center of Microorganisms (KCCM; Seoul, Korea). The bacterial strains used for the Example were methicillin-susceptible S. aureus (MSSA; KCTC 1927), two MRSA strains (KCCM 40510 and KCCM 40511). All strains were grown in Mueller-Hinton broth (MHB; Difco, Detroit, USA) or Tryptic soy broth (TSB; Difco) for minimum inhibitory concentration (MIC) assay and in Mueller-Hinton agar (MHA; Difco) for disc diffusion.
(§2) MIC means the lowest concentration of antimicrobials that will inhibit the visible growth of microorganisms after overnight incubation. MICS of the extracts and vancomycin were determined by the two-fold serial dilution method in MHB.

For assay [1], the system named is MRSA (KCCM 40510). Description: Minimum inhibitory concentration, two-fold serial dilution, MRSA KCCM 40510. As to the method: as §1, §2
For assay [2], the system named is MRSA (KCCM 40511). The assay can be described thus: Minimum inhibitory concentration, two-fold serial dilution, MRSA KCCM 40511. As to the method: as §1, §2
Assay [3] relates to MRSA (KCCM 40510). Description: Checkerboard synergy of phlorofucofuroeckol-A and β-lactams, MRSA KCCM 40510. Conditions: for MIC: Staphylococcus aureus. As to the method:
(§3) The interaction between phlorofucofuroeckol-A (PFF) and β-lactams including ampicillin, penicillin and oxacillin against MRSA was tested by the checkerboard method. The synergistic effect was evaluated as a fractional inhibitory concentration (FIC) index. The FIC was calculated as the MICS of an antibiotic or phlorofucofuroeckol-A (PFF) in combination divided by the MIC of the antibiotic or PFF alone as follows.
(§4) The FIC was then summed to derive the FIC index, which indicated synergy when index values were as follows:
(§5) synergism ≦≦0.5, indifference >0.5 to ≦≦4, antagonism >4.
(§6) FICA=MICA in combination/MICA, FICB=MICB in combination/MICB

In the next assay the test system is MSSA (KCCTC 1927). The assay can be described thus: Checkerboard synergy of phlorofucofuroeckol-A and β-lactams, MSSA KCTC 1927. As to conditions: for MIC: Staphylococcus aureus, MSSA.
The subject of assay [4] is MRSA (KCCM 40511). Description: Checkerboard synergy of phlorofucofuroeckol-A and β-lactams, MRSA KCCM 40511. Conditions: for MIC: Staphylococcus aureus. The procedure: as §3, §4, §5, §6
Setting [5] is: Table 6, isolated phlorotannins.
Where [6] appears, read: Staphylococcus aureus, Table 6, isolated phlorotannins, read-out: MIC.
Setting [7] is: in combination with phlorofucofuroeckol-A at 12.5 μg/ml, read-out: MIC of β-lactam (B).
Where [8] appears, read: in combination with phlorofucofuroeckol-A at 25 μg/ml, read-out: MIC of β-lactam (C).
[9] abbreviates: without phlorofucofuroeckol-A, read-out: MIC of β-lactam (A).
The mark [10] stands for this setting: β-lactam with phlorofucofuroeckol-A at 12.5 μg/ml, synergism ≦0.5, indifference >0.5 to ≦4, antagonism >4.
The mark [11] stands for this setting: β-lactam with phlorofucofuroeckol-A at 25 μg/ml, synergism ≦0.5, indifference >0.5 to ≦4, antagonism >4.

In brackets after ≈: the same amount, converted by molar mass. Read-outs that look alike come from different tables or passages of the source.

As usually defined, the MIC is the least concentration at which growth counts as inhibited. In the case of `CN[C@H](CC(C)C)C(=O)N[C@H]1C(=O)N[C@@H](CC(N)=O)C(=O)N[C@H]2C(=O)N[C@H]3C(=O)N[C@H](C(=O)N[C@H](C(=O)O)c4cc(O)cc(O)c4-c4cc3ccc4O)[C@H](O)c3ccc(c(Cl)c3)Oc3cc2cc(c3O[C@@H]2O[C@H](CO)[C@@H](O)[C@H](O)[C@H]2O[C@H]2C[C@](C)(N)[C@H](O)[C@H](C)O2)Oc2ccc(cc2Cl)[C@H]1O` [Vancomycin, vancomycin], the MIC against MSSA (KCTC 1927) (Staphylococcus aureus) was found to be 0.5 mg/L (≈ 0.345 µM); against MRSA (KCCM 40510) [1] (Staphylococcus aureus) it was 2 mg/L (≈ 1.38 µM); in the assay on MRSA (KCCM 40511) [2] (Staphylococcus aureus), 2 mg/L (≈ 1.38 µM).

Turning to `Oc1cc(O)cc(Oc2c(O)cc(O)c3c2Oc2c(O)cc(Oc4c(O)cc(O)cc4O)cc2O3)c1` [PE, 1-(3′,5′-dihydroxyphenoxy)-7-(2″,4″,6-trihydroxyphenoxy)-2,4,9-trihydroxydibenzo-1,4-dioxin], the values for the MIC against MSSA (KCTC 1927) (setting [5]), against MRSA (KCCM 40510) [1] (setting [5]) and against MRSA (KCCM 40511) [2] (setting [5]) were 64 mg/L (≈ 129 µM), 32 mg/L (≈ 64.5 µM) and 64 mg/L (≈ 129 µM), respectively.

With `Oc1cc(O)cc(Oc2c(O)cc(O)c3c2Oc2c(O)cc(Oc4c(O)cc(Oc5c(O)cc(O)c6c5Oc5c(O)cc(O)cc5O6)cc4O)cc2O3)c1` [DE, dieckol], the results for the MIC in the assay with MSSA (KCTC 1927) (setting [6]), in the assay on MRSA (KCCM 40510) [1] (setting [6]) and against MRSA (KCCM 40511) [2] (Staphylococcus aureus) were 32 mg/L (≈ 43.1 µM), 32 mg/L (≈ 43.1 µM) and 64 mg/L (≈ 86.2 µM), respectively.

Regarding `CC1(C)S[C@@H]2[C@H](NC(=O)[C@H](N)c3ccccc3)C(=O)N2[C@H]1C(=O)O` [Ampicillin, ampicillin], the MIC is 16 mg/L in the assay with MRSA (KCCM 40510) [3] (setting [7]); 8 mg/L in the assay on MRSA (KCCM 40510) [3] (setting [8]); 512 mg/L with MRSA (KCCM 40510) [3] (setting [9]); 0.063 mg/L in the assay with MSSA (KCCTC 1927) (setting [7]); 0.063 mg/L in the assay on MSSA (KCCTC 1927) (setting [8]); 0.063 mg/L in the assay with MSSA (KCCTC 1927) (setting [9]). The MIC in the assay on MSSA (KCTC 1927) (Staphylococcus aureus, Table 5, PFF and β-lactams, mecA negative strain, read-out: MIC) is 0.063 mg/L (≈ 0.18 µM); in the assay on MRSA (KCCM 40511) [4] (setting [7]) it was 2 mg/L; in the assay on MRSA (KCCM 40511) [4] (setting [8]) it was 1 mg/L; in the assay on MRSA (KCCM 40511) [4] (setting [9]), 512 mg/L. For the same compound, the “FIC index (b)” value with MRSA (KCCM 40510) [3] (setting [10]) was determined as 0.422; in the assay with MSSA (KCCTC 1927) (setting [10]), 1.391; with MRSA (KCCM 40511) [4] (setting [10]), 0.395. For the same compound, the “FIC index (c)” value is given as 0.407 with MRSA (KCCM 40510) [3] (setting [11]), 1.781 in the assay on MSSA (KCCTC 1927) (setting [11]) and 0.393 in the assay with MRSA (KCCM 40511) [4] (setting [11]).

For the compound `Oc1cc(O)c2oc3cc(O)c4oc5cc(O)cc(O)c5oc4c3oc2c1` [DD, dioxinodehydroeckol], the MIC with MSSA (KCTC 1927) (Staphylococcus aureus), in the assay with MRSA (KCCM 40510) [1] (Staphylococcus aureus) and in the assay with MRSA (KCCM 40511) [2] (Staphylococcus aureus) was 64 mg/L (≈ 173 µM) throughout.

These data come from US20130338217A1, “ANTIBIOTIC COMPOSITION INCLUDING PHLOROTANNIN COMPOUND DERIVED FROM EISENIA BICYCLIS AS EFFECTIVE COMPONENT” (PUKYONG NATIONAL UNIVERSITY INDUSTRY-UNIVERSITY C, priority 2012, published 2013).
